Measurements published in patent US20140147528A1, “GARLIC FORMULATION AND A PROCESS FOR PREPARING THE SAME FOR TREATMENT OF DIABETES” (priority 2012, published 2014).

Experiments:
Assay type in all cases: in vivo, rat
STZ diabetic rats [1] = assay: Serum total protein, creatinine and uric acid in STZ diabetic rats; conditions: Glibenclamide 10 mg/kg p.o. (Group III), 21 days, ± S.E, n=6
Protocol: (§1) The garlic tablet at the said dosages was subjected to efficacy studies in diabetic animal models. For the efficacy studies on diabetes, studies were carried out using male Wistar albino rats (150-200 g). The animals were grouped and housed in polyacrylic cages with not more than six animals per cage and maintained under standard laboratory conditions (temperature 25°±2° C.) with dark and light cycle (12/12 h). The animals were fed with standard pellet diet supplied by Hindustan Lever Ltd., India and fresh water ad libitum. All the animals were acclimatized to laboratory condition for a week before commencement of experiment. […] were divided into five groups for further experiments.
(§2) Rats were randomly allocated to five groups. Diabetes was induced by a single intraperitoneal injection of 120 mg/kg of Streptozotocin (STZ) in citrate buffer (0.1 M, pH 4.5). Group I consisted of normal healthy rats that were administered 1 ml/kg of 0.5% carboxy methylcellulose (CMC) solution orally. Group II consisted of diabetic rats used as control and were administered orally 1 ml/kg of 0.5% carboxy methylcellulose solution. Groups III consisted of diabetic rats treated daily with oral administration of 10 mg/kg of glibenclamide. Group IV consisted of diabetic rats treated orally with 500 mg of tablet suspended in 0.5% carboxy methylcellulose solution. Group V consisted of diabetic rats treated orally with 1000 mg of tablet suspended in 0.5% carboxy methylcellulose solution.
(§3) All the test drugs were administered for 21 days. Blood glucose levels were estimated on the 1st, 3rd, 7th, 14th and 21st day by collecting tail vein using glucometer during drug treatment. On the 22nd day, the blood was collected for biochemical estimation by sinus puncture under anesthesia. The animals were sacrificed by cervical dislocation and organs were removed for histopathological studies.

STZ diabetic rats [2] = assay: Serum AST, ALT and ALP in STZ diabetic rats; conditions: Glibenclamide 10 mg/kg p.o. (Group III), 21 days, ± S.E, n=6
Protocol: as §1, §2, §3

[3] = Body weight development in STZ diabetic rats; conditions: Glibenclamide 10 mg/kg p.o. (Group III), ± S.E, n=6
Protocol: as §1
as §2, with “Group V consisted of diabetic rats treated orally with 1000 mg of tablet suspended in 0.5% carboxy methylcellulose solution.” left out

[4] = system: STZ induced diabetic rats; assay: Blood glucose in STZ induced diabetic rats (glucometer, tail vein); conditions: Glibenclamide 10 mg/kg p.o. daily, n=6
Protocol: as §1, §2, §3

STZ diabetic rats [5] = assay: Hemoglobin, glycosylated hemoglobin and plasma insulin in STZ diabetic rats; conditions: Glibenclamide 10 mg/kg p.o. (Group III), 21 days, ± S.E, n=6
Protocol: as §1
as §2, with “Group V consisted of diabetic rats treated orally with 1000 mg of tablet suspended in 0.5% carboxy methylcellulose solution.” left out

For `COc1ccc(Cl)cc1C(=O)NCCc1ccc(S(=O)(=O)NC(=O)NC2CCCCC2)cc1` [Glibenclamide, glibenclamide], the Creatinine (STZ diabetic rats [1]) was 1.04 ± 0.01^b** mg/dl, the Protein (STZ diabetic rats [1]) was 126.4 ± 2.84^b*** mg/dl and the Uric acid (STZ diabetic rats [1]) was 1.57 ± 0.06^b*** mg/dl. The ALP (STZ diabetic rats [2]) was 171.9 ± 4.07 ^b*** μmoles of phenol liberated/min/mg of protein, the ALT (STZ diabetic rats [2]) was 56.4 ± 1.54 ^b*** μmoles of pyruvate/h/mg/of protein and the AST (STZ diabetic rats [2]) was 161.0 ± 64.0 ^b*** μmoles of pyruvate/h/mg/of protein. The “Body Weight Final” value ([3]; 21 days) was 161.13 ± 2.14^b* g, the “Body Weight Initial” value [3] was 163.6 ± 1.42 g and the “Blood Sugar, 1 Day” value ([4]; day 1, mean) was 290.50 mg/dL. The “Blood Sugar, 3 Day” value ([4]; day 3, mean) was 210.17 mg/dL, the “Blood Sugar, 7 Day” value ([4]; day 7, mean) was 157.67 mg/dL and the “Blood Sugar, 14 Day” value ([4]; day 14, mean) was 124.50 mg/dL. The “Blood Sugar, 21 Day” value ([4]; day 21, mean) was 113.17 mg/dL, the HBA1C (STZ diabetic rats [5]) was 0.17 ± 0.008^b*** % Hb and the “Plasma Insulin” value (STZ diabetic rats [5]) was 16.4 ± 0.27^b*** μU/ml.
